Source: paper PMC7531004, “Discovery of gramicidin A analogues with altered activities by multidimensional screening of a one-bead-one-compound library” (Nature Communications, 2020)
Where a SMILES comes first, the peptide text is derived from it. [ ]: non-standard residue; d: D form. The star is where a group is joined. NHCH2CH2OH = OCCN*; For = O=C*

Tests used:
[1] = tested on: P388 mouse leukemia cells; conditions: 92 h
How it was run: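 First, library peptide stocks are diluted 250-fold in RPMI1640 with 10% heat-inactivated FBS. Next, they are mixed with P388 cells to give 1 × 10^4 cells/mL and incubated 92 h at 37 °C, 5% CO2. Finally, viability (%) is scored by WST-1 absorbance at 415 nm.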

[2] = tested on: Streptococcus pyogenes SSI-9; experiment: Antibacterial activity assay of bead-derived peptides (three concentrations); format: cell-based; set-up: key: +++: inhibition by the 640-fold diluted peptide solution; ++: inhibition by the 160-fold diluted solution; +: inhibition by the 40-fold diluted solution; -: no inhibition; conditions: S. pyogenes, bead-derived peptide solution, three concentrations
How it was run: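 Three stock dilutions per peptide (none, 4-fold, 16-fold in DMSO) are screened in 96-well format. The medium is blood-supplemented cation-adjusted MHB, inoculated with 2 × 10^5 CFU S. pyogenes SSI-9. Growth is read as cell precipitation at 18 h, 37 °C.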

[3] = H+/Na+ transport assay of bead-derived peptides (one-point); format: biochemical; set-up: key: relative activity; mean of two control wells = 1.00; conditions: bead-derived peptide solution, EYPC/EYPG LUVs;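 further: relative to parent gramicidin A activity set to 1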
How it was run: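 Pyranine (1.0 mM)-loaded LUVs containing egg yolk phosphatidylglycerol were prepared by film hydration, sonication and extrusion, then mixed with diluted bead-derived peptide in 96-well format and vortexed 30 min at room temperature. Fluorescence was normalized between untreated LUVs (0%) and Triton X-100 lysis (100%).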

Row | Structure (SMILES) | cell viability/% [1] [%] | antibacterial activity [2] | H+/Na+ transport activity normalized against the value of 1 (1.00) [3]
1 | CNC(=O)C[C@@H](NC(=O)[C@@H](NC(=O)[C@H](NC(=O)[C@H](C)NC(=O)[C@@H](CC(C)C)NC(=O)[C@H](C)NC(=O)CNC(=O)[C@@H](NC=O)C(C)C)C(C)C)C(C)C)C(=O)N[C@@H](Cc1c[nH]c2ccccc12)C(=O)N[C@@H](C(=O)N[C@@H](Cc1c[nH]c2ccccc12)C(=O)N[C@H](CC(C)C)C(=O)N[C@@H](Cc1c[nH]c2ccccc12)C(=O)N[C@@H](C(=O)N[C@@H](Cc1c[nH]c2ccccc12)C(=O)NCCO)C(C)C)C(C)C [compound 9521] (For-VGA[dL]A[dV]V[dD](NHMe)W[dV]W[dL]W[dV]W-NHCH2CH2OH) | 100.0 | - | 1.14
2 | CNC(=O)C[C@@H](NC(=O)[C@@H](NC(=O)[C@@H](CC(C)C)NC(=O)[C@H](C)NC(=O)[C@H](NC(=O)[C@H](C)NC(=O)CNC(=O)[C@@H](NC=O)C(C)C)C(C)C)C(C)C)C(=O)N[C@@H](Cc1c[nH]c2ccccc12)C(=O)N[C@H](CC(C)C)C(=O)N[C@@H](Cc1c[nH]c2ccccc12)C(=O)N[C@H](CC(C)C)C(=O)N[C@@H](Cc1c[nH]c2ccccc12)C(=O)N[C@@H](C(=O)N[C@@H](Cc1c[nH]c2ccccc12)C(=O)NCCO)C(C)C [compound 9229] (For-VGA[dV]A[dL]V[dD](NHMe)W[dL]W[dL]W[dV]W-NHCH2CH2OH) | 100.0 | - | 1.15
3 | CC(C)C[C@@H](NC(=O)[C@H](C)NC(=O)CNC(=O)[C@@H](NC=O)C(C)C)C(=O)N[C@@H](C)C(=O)N[C@@H](C(=O)N[C@H](C(=O)N[C@@H](C(=O)N[C@@H](Cc1c[nH]c2ccccc12)C(=O)N[C@H](CC(C)C)C(=O)N[C@@H](Cc1c[nH]c2ccccc12)C(=O)N[C@@H](C(=O)N[C@@H](Cc1c[nH]c2ccccc12)C(=O)N[C@H](CC(C)C)C(=O)N[C@@H](Cc1c[nH]c2ccccc12)C(=O)NCCO)C(C)C)[C@H](C)O)C(C)C)C(C)C [compound 4279] (For-VGA[dL]A[dV]V[dT]W[dL]W[dV]W[dL]W-NHCH2CH2OH) | 98.8 | - | 1.05
4 | CC(C)C[C@@H](NC(=O)[C@H](C)NC(=O)CNC(=O)[C@@H](NC=O)C(C)C)C(=O)N[C@@H](C)C(=O)N[C@@H](C(=O)N[C@H](C(=O)N[C@H](CC(C)C)C(=O)N[C@@H](Cc1c[nH]c2ccccc12)C(=O)N[C@H](CC(C)C)C(=O)N[C@@H](Cc1c[nH]c2ccccc12)C(=O)N[C@H](CC(C)C)C(=O)N[C@@H](Cc1c[nH]c2ccccc12)C(=O)N[C@H](CC(C)C)C(=O)N[C@@H](Cc1c[nH]c2ccccc12)C(=O)NCCO)C(C)C)C(C)C [compound 9628] (For-VGA[dL]A[dV]V[dL]W[dL]W[dL]W[dL]W-NHCH2CH2OH) | 0.0 | + | 1.16
5 | CC(C)C[C@@H](NC(=O)[C@H](C)NC(=O)[C@H](NC(=O)[C@H](C)NC(=O)CNC(=O)[C@@H](NC=O)C(C)C)C(C)C)C(=O)N[C@H](C(=O)N[C@@H](C(=O)N[C@@H](Cc1c[nH]c2ccccc12)C(=O)N[C@H](CC(C)C)C(=O)N[C@@H](Cc1c[nH]c2ccccc12)C(=O)N[C@@H](C(=O)N[C@@H](Cc1c[nH]c2ccccc12)C(=O)N[C@H](CC(C)C)C(=O)N[C@@H](Cc1c[nH]c2ccccc12)C(=O)NCCO)C(C)C)C(C)C)C(C)C [compound 5241] (For-VGA[dV]A[dL]V[dV]W[dL]W[dV]W[dL]W-NHCH2CH2OH) | 12.2 | ++ | 1.39
6 | CNC(=O)C[C@@H](NC(=O)[C@@H](NC(=O)[C@H](NC(=O)[C@H](C)NC(=O)[C@H](NC(=O)[C@H](C)NC(=O)CNC(=O)[C@@H](NC=O)C(C)C)C(C)C)C(C)C)C(C)C)C(=O)N[C@@H](Cc1c[nH]c2ccccc12)C(=O)N[C@H](CC(C)C)C(=O)N[C@@H](Cc1c[nH]c2ccccc12)C(=O)N[C@H](CC(C)C)C(=O)N[C@@H](Cc1c[nH]c2ccccc12)C(=O)N[C@@H](C(=O)N[C@@H](Cc1c[nH]c2ccccc12)C(=O)NCCO)C(C)C [compound 11796] (For-VGA[dV]A[dV]V[dD](NHMe)W[dL]W[dL]W[dV]W-NHCH2CH2OH) | 100.0 | - | 1.33
7 | CC(C)C[C@@H](NC(=O)[C@H](C)NC(=O)CNC(=O)[C@@H](NC=O)C(C)C)C(=O)N[C@@H](C)C(=O)N[C@H](CC(C)C)C(=O)N[C@H](C(=O)N[C@@H](C(=O)N[C@@H](Cc1c[nH]c2ccccc12)C(=O)N[C@@H](C(=O)N[C@@H](Cc1c[nH]c2ccccc12)C(=O)N[C@H](CC(C)C)C(=O)N[C@@H](Cc1c[nH]c2ccccc12)C(=O)N[C@@H](C(=O)N[C@@H](Cc1c[nH]c2ccccc12)C(=O)NCCO)C(C)C)C(C)C)C(C)C)C(C)C [compound 10456] (For-VGA[dL]A[dL]V[dV]W[dV]W[dL]W[dV]W-NHCH2CH2OH) | 11.8 | + | 1.13
8 | CNC(=O)C[C@@H](NC(=O)[C@@H](NC(=O)[C@@H](CC(C)C)NC(=O)[C@H](C)NC(=O)[C@H](NC(=O)[C@H](C)NC(=O)CNC(=O)[C@@H](NC=O)C(C)C)C(C)C)C(C)C)C(=O)N[C@@H](Cc1c[nH]c2ccccc12)C(=O)N[C@@H](C(=O)N[C@@H](Cc1c[nH]c2ccccc12)C(=O)N[C@@H](C(=O)N[C@@H](Cc1c[nH]c2ccccc12)C(=O)N[C@H](CC(C)C)C(=O)N[C@@H](Cc1c[nH]c2ccccc12)C(=O)NCCO)C(C)C)C(C)C [compound 11226] (For-VGA[dV]A[dL]V[dD](NHMe)W[dV]W[dV]W[dL]W-NHCH2CH2OH) | 76.8 | - | 1.04
9 | CC(C)C[C@@H](NC(=O)[C@H](C)NC(=O)[C@H](NC(=O)[C@H](C)NC(=O)CNC(=O)[C@@H](NC=O)C(C)C)C(C)C)C(=O)N[C@H](C(=O)N[C@@H](C(=O)N[C@@H](Cc1c[nH]c2ccccc12)C(=O)N[C@@H](C(=O)N[C@@H](Cc1c[nH]c2ccccc12)C(=O)N[C@H](CC(C)C)C(=O)N[C@@H](Cc1c[nH]c2ccccc12)C(=O)N[C@@H](C(=O)N[C@@H](Cc1c[nH]c2ccccc12)C(=O)NCCO)C(C)C)C(C)C)[C@H](C)O)C(C)C [compound 9633] (For-VGA[dV]A[dL]V[dT]W[dV]W[dL]W[dV]W-NHCH2CH2OH) | 100.0 | - | 1.06
10 | CC(C)C[C@@H](NC(=O)[C@H](C)NC(=O)[C@H](NC(=O)[C@H](C)NC(=O)CNC(=O)[C@@H](NC=O)C(C)C)C(C)C)C(=O)N[C@H](C(=O)N[C@@H](C(=O)N[C@@H](Cc1c[nH]c2ccccc12)C(=O)N[C@H](CC(C)C)C(=O)N[C@@H](Cc1c[nH]c2ccccc12)C(=O)N[C@H](CC(C)C)C(=O)N[C@@H](Cc1c[nH]c2ccccc12)C(=O)N[C@@H](C(=O)N[C@@H](Cc1c[nH]c2ccccc12)C(=O)NCCO)C(C)C)[C@H](C)O)C(C)C [compound 8984] (For-VGA[dV]A[dL]V[dT]W[dL]W[dL]W[dV]W-NHCH2CH2OH) | 57.9 | - | 1.12
11 | CC(C)C[C@@H](NC(=O)[C@H](C)NC(=O)[C@H](NC(=O)[C@H](C)NC(=O)CNC(=O)[C@@H](NC=O)C(C)C)[C@H](C)O)C(=O)N[C@H](C(=O)N[C@@H](C(=O)N[C@@H](Cc1c[nH]c2ccccc12)C(=O)N[C@@H](C(=O)N[C@@H](Cc1c[nH]c2ccccc12)C(=O)N[C@H](CC(C)C)C(=O)N[C@@H](Cc1c[nH]c2ccccc12)C(=O)N[C@@H](C(=O)N[C@@H](Cc1c[nH]c2ccccc12)C(=O)NCCO)C(C)C)C(C)C)C(C)C)C(C)C [compound 8687] (For-VGA[dT]A[dL]V[dV]W[dV]W[dL]W[dV]W-NHCH2CH2OH) | 66.9 | - | 1.15
12 | CNC(=O)C[C@@H](NC(=O)[C@H](Cc1c[nH]c2ccccc12)NC(=O)[C@H](NC(=O)[C@H](Cc1c[nH]c2ccccc12)NC(=O)[C@H](NC(=O)[C@H](Cc1c[nH]c2ccccc12)NC(=O)[C@@H](CC(C)C)NC(=O)[C@@H](NC(=O)[C@H](NC(=O)[C@H](C)NC(=O)[C@@H](CC(C)C)NC(=O)[C@H](C)NC(=O)CNC(=O)[C@@H](NC=O)C(C)C)C(C)C)C(C)C)C(C)C)C(C)C)C(=O)N[C@@H](Cc1c[nH]c2ccccc12)C(=O)NCCO [compound 8567] (For-VGA[dL]A[dV]V[dL]W[dV]W[dV]W[dD](NHMe)W-NHCH2CH2OH) | 60.9 | - | 1.22
13 | CC(C)C[C@@H](NC(=O)[C@H](Cc1c[nH]c2ccccc12)NC(=O)[C@H](NC(=O)[C@@H](NC(=O)[C@H](NC(=O)[C@H](C)NC(=O)[C@H](NC(=O)[C@H](C)NC(=O)CNC(=O)[C@@H](NC=O)C(C)C)C(C)C)C(C)C)C(C)C)C(C)C)C(=O)N[C@@H](Cc1c[nH]c2ccccc12)C(=O)N[C@@H](C(=O)N[C@@H](Cc1c[nH]c2ccccc12)C(=O)N[C@@H](C(=O)N[C@@H](Cc1c[nH]c2ccccc12)C(=O)NCCO)C(C)C)C(C)C [compound 4830] (For-VGA[dV]A[dV]V[dV]W[dL]W[dV]W[dV]W-NHCH2CH2OH) | 89.5 | ++ | 1.18
